Experimental data from PubChem BioAssay (NCI).
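Exposure lasted 48 hours, with cells grown in 96-well plates and compounds tested at five concentrations. Here, GI50 denotes the concentration required for 50% inhibition of growth. At the TGI there is no net growth.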

Assays:
Test in all cases: DTP human tumour cell line panel, 48 h
[1] = system: SK-OV-3 ovarian
[2] = system: SN12C renal
[3] = system: RPMI-8226 leukemia
[4] = system: U251 CNS
[5] = system: OVCAR-3 ovarian
[6] = system: ACHN renal
[7] = system: CCRF-CEM leukemia
[8] = system: IGROV1 ovarian
[9] = system: HOP-62 NSCLC
[10] = system: UACC-257 melanoma

SMILES: CCC(C)c1c(Cl)nc(Cl)nc1Cl (stereo not drawn)
- TGI [1]: > 100 µM
- TGI [2]: 85.4 µM
- TGI [3]: > 100 µM
- TGI [4]: 15.4 µM
- TGI [5]: 14.8 µM
- TGI [6]: 11.9 µM
- TGI [7]: > 100 µM
- TGI [8]: 34.5 µM
- TGI [9]: 16 µM

SMILES: O/N=C/C1c2ccccc2-c2ccccc21
- TGI [1]: 36.2 µM
- TGI [2]: 31.9 µM
- TGI [3]: 52.8 µM
- TGI [4]: 44 µM
- TGI [5]: 34.1 µM
- TGI [6]: 32.2 µM
- TGI [7]: 50.4 µM
- TGI [9]: 34.2 µM
- TGI [10]: 34 µM

SMILES: COc1ccc(NC2=CC(=O)C(=O)c3ccccc32)nn1
- TGI [1]: 9.41 µM
- TGI [2]: 3.52 µM
- TGI [3]: 5.34 µM
- TGI [4]: 12.4 µM
- TGI [5]: 5.94 µM
- TGI [6]: 5.1 µM
- TGI [7]: > 100 µM
- TGI [8]: 11.1 µM
- TGI [10]: 3.24 µM

SMILES: COC(=O)/C=C/c1cc(OC)c(OC)c(OC)c1
- TGI [1]: > 100 µM
- TGI [2]: > 100 µM
- TGI [5]: > 100 µM
- TGI [6]: > 100 µM
- TGI [7]: > 100 µM
- TGI [8]: > 100 µM
- TGI [9]: > 100 µM
- TGI [10]: > 100 µM

SMILES: Nc1cc(N)c2nc(-c3ccccc3)c(Nc3ccc(Cl)c(Cl)c3)nc2c1
- GI50 [1]: 13.7 µM
- TGI [1]: 31.3 µM
- GI50 [2]: 12.7 µM
- TGI [2]: 31.8 µM
- GI50 [3]: 2 µM
- TGI [3]: 4.92 µM
- GI50 [4]: 4.68 µM
- TGI [4]: > 100 µM
- GI50 [5]: 2.93 µM
- TGI [5]: 9.91 µM
- GI50 [8]: 4.92 µM
- TGI [8]: 21.1 µM
- GI50 [9]: 17.5 µM
- TGI [9]: 38.4 µM
- GI50 [10]: 11.4 µM
- TGI [10]: 28.2 µM

SMILES: C=CCOCCCCC(C(C)=O)C(=O)OC (stereo not drawn)
- TGI [1]: > 100 µM
- TGI [2]: > 100 µM
- TGI [3]: > 100 µM
- TGI [4]: > 100 µM
- TGI [5]: > 100 µM
- TGI [6]: > 100 µM
- TGI [7]: > 100 µM
- TGI [8]: > 100 µM
- TGI [10]: > 100 µM

SMILES: Cc1cc2c(cc1C)[n+](=O)c(C(=O)C/C(=N/NC(=O)CC#N)C(=O)Nc1ccccc1C(F)(F)F)c(C)n2[O-]
- TGI [1]: > 100 µM
- TGI [2]: > 100 µM
- TGI [4]: > 100 µM
- TGI [5]: > 100 µM
- TGI [6]: > 100 µM
- TGI [7]: > 100 µM
- TGI [8]: > 100 µM
- TGI [9]: > 100 µM
- TGI [10]: > 100 µM

SMILES: CC1=CC(=Nc2ccc(N(CCCl)CCCl)cc2)C=C(C)C1=O
- GI50 [1]: 3.21 µM
- TGI [1]: 23 µM
- GI50 [2]: 1.01 µM
- TGI [2]: > 26.7 µM
- GI50 [3]: 1.14 µM
- TGI [3]: 9.29 µM
- GI50 [4]: 1.02 µM
- TGI [4]: 7.33 µM
- GI50 [5]: 1.05 µM
- TGI [5]: 3.13 µM
- GI50 [6]: 0.29 µM
- TGI [6]: 1.61 µM
- GI50 [7]: 0.187 µM
- TGI [7]: 5.21 µM
- GI50 [9]: 1.1 µM
- TGI [9]: 7.37 µM
- GI50 [10]: 1.49 µM
- TGI [10]: 5.12 µM

SMILES: C/C(CC(=O)Nc1cc(Cl)c(Cl)cc1Cl)=N\NC(N)=O
- TGI [1]: > 100 µM
- TGI [3]: > 100 µM
- TGI [4]: > 100 µM
- TGI [5]: > 100 µM
- TGI [7]: > 100 µM
- TGI [8]: > 100 µM
- TGI [9]: > 100 µM
- TGI [10]: > 100 µM

SMILES: O=C1CCC(=O)N2CCCCN12
- TGI [1]: > 100 µM
- TGI [2]: > 100 µM
- TGI [4]: > 100 µM
- TGI [5]: > 100 µM
- TGI [6]: > 100 µM
- TGI [7]: > 100 µM
- TGI [8]: > 100 µM
- TGI [9]: > 100 µM
- TGI [10]: > 100 µM

SMILES: Nc1nc(Cl)c2ncn(Cc3ccc(C45CC6CC(CC(C6)C4)C5)c(O)c3)c2n1
- GI50 [1]: 5.64 µM
- TGI [1]: 21.4 µM
- GI50 [2]: 2.95 µM
- TGI [2]: 13.4 µM
- GI50 [4]: 3.09 µM
- TGI [4]: 12.9 µM
- GI50 [5]: 2.32 µM
- TGI [5]: 11.1 µM
- GI50 [6]: 3.35 µM
- TGI [6]: 13.9 µM
- GI50 [7]: 0.809 µM
- TGI [7]: 10.6 µM
- GI50 [8]: 4.72 µM
- TGI [8]: 21.9 µM
- GI50 [9]: 1.85 µM
- TGI [9]: 3.77 µM
- GI50 [10]: 0.578 µM
- TGI [10]: 4.86 µM

SMILES: COc1ccc(/C=C/CN(C)CCc2ccccc2)cc1OC
- TGI [2]: > 100 µM
- TGI [3]: > 100 µM
- TGI [4]: > 100 µM
- TGI [5]: > 100 µM
- TGI [6]: > 100 µM
- TGI [8]: > 100 µM
- TGI [10]: > 100 µM

SMILES: CCCCN=C(NC#N)NCCCC
- TGI [1]: > 100 µM
- TGI [2]: > 100 µM
- TGI [3]: > 100 µM
- TGI [4]: > 100 µM
- TGI [5]: > 100 µM
- TGI [6]: > 100 µM
- TGI [8]: > 100 µM
- TGI [9]: > 100 µM
- TGI [10]: > 100 µM

SMILES: NC(CCC(=O)NC(CSSCCCCS(=O)O)C(=O)NCC(=O)O)C(=O)O (stereo not drawn)
- TGI [1]: > 100 µM
- TGI [2]: > 100 µM
- TGI [4]: > 100 µM
- TGI [5]: > 100 µM
- TGI [6]: > 100 µM
- TGI [7]: > 100 µM
- TGI [8]: > 100 µM
- TGI [9]: > 100 µM
- TGI [10]: > 100 µM

SMILES: CC1(C)OC2[C@@H](CNC(=O)NC(=O)NC(=O)CI)O[C@@H](n3cnc4c(NC(=O)Nc5ccccc5)ncnc43)[C@H]2O1 (stereo partly drawn)
- GI50 [1]: 22.2 µM
- TGI [1]: > 50 µM
- GI50 [2]: 10.3 µM
- TGI [2]: 28.6 µM
- GI50 [3]: 7.82 µM
- TGI [3]: 23.3 µM
- GI50 [4]: 10 µM
- TGI [4]: 20.4 µM
- GI50 [5]: 5.72 µM
- TGI [5]: 12.6 µM
- GI50 [6]: 6.94 µM
- TGI [6]: 14.7 µM
- GI50 [8]: 2.15 µM
- TGI [8]: 8.6 µM
- GI50 [9]: > 50 µM
- TGI [9]: > 50 µM
- GI50 [10]: 9.91 µM
- TGI [10]: 17.8 µM

SMILES: C=CCCCCCCCCC(=O)[O][Sn]([CH2]CCC)([CH2]CCC)[CH2]CCC
- GI50 [1]: 0.149 µM
- TGI [1]: 0.306 µM
- GI50 [2]: 0.153 µM
- TGI [2]: 0.331 µM
- GI50 [3]: 0.035 µM
- TGI [3]: 0.278 µM
- GI50 [4]: 0.165 µM
- TGI [4]: 0.318 µM
- GI50 [5]: 0.147 µM
- TGI [5]: 0.285 µM
- GI50 [6]: 0.164 µM
- TGI [6]: 0.31 µM
- GI50 [8]: 0.148 µM
- TGI [8]: 0.335 µM
- GI50 [9]: 0.172 µM
- TGI [9]: 0.346 µM
- GI50 [10]: 0.144 µM
- TGI [10]: 0.291 µM

SMILES: COC(=O)C1Cc2c(n(Cc3ccccc3)c3ccccc23)C(CCC(=O)O)N1C(C)C (stereo not drawn)
- TGI [1]: > 100 µM
- TGI [2]: > 100 µM
- TGI [4]: > 100 µM
- TGI [5]: > 100 µM
- TGI [6]: > 100 µM
- TGI [7]: > 100 µM
- TGI [8]: > 100 µM
- TGI [10]: > 100 µM

SMILES: CCC[CH2][Sn]([CH2]CCC)([O]C(=O)c1cccnc1SC)[O]C(=O)c1cccnc1SC
- GI50 [1]: 2.36 µM
- TGI [1]: 5.83 µM
- GI50 [2]: 0.62 µM
- TGI [2]: 1.92 µM
- GI50 [4]: 0.596 µM
- TGI [4]: 1.84 µM
- GI50 [5]: 1.33 µM
- TGI [5]: 2.63 µM
- GI50 [6]: 0.878 µM
- TGI [6]: 2.09 µM
- GI50 [8]: 1.38 µM
- TGI [8]: 2.72 µM
- GI50 [9]: 2.43 µM
- TGI [9]: 4.22 µM
- GI50 [10]: 0.922 µM
- TGI [10]: 2.14 µM

SMILES: O=C1C2c3[nH]c4ccccc4c3C3CCCCCCC3C2C(=O)N1c1ccccc1 (stereo not drawn)
- TGI [1]: 6.37 µM
- TGI [2]: 22.2 µM
- TGI [3]: 68.3 µM
- TGI [4]: 14.9 µM
- TGI [5]: 17.2 µM
- TGI [6]: 38.4 µM
- TGI [7]: 25.6 µM

SMILES: O=C(O)C(CO)NC(=O)n1c2ccccc2c2ccccc21 (stereo not drawn)
- TGI [1]: > 100 µM
- TGI [2]: > 100 µM
- TGI [3]: > 100 µM
- TGI [5]: > 100 µM
- TGI [6]: > 100 µM
- TGI [7]: > 100 µM
- TGI [8]: > 100 µM
- TGI [9]: > 100 µM
- TGI [10]: > 100 µM
